Data on 21 molecules can be found in paper PMC3722296 (PLoS ONE, 2013).

The subject of one series is S. aureus S1. Description: Antibiotic susceptibility, agar disc diffusion. The format is cell-based, Staphylococcus aureus. The settings on record: agar disc diffusion method. Here is the method: (§1) S1 was isolated from the blood of a patient and S2 was isolated from the sputum of a neonate. After isolation and identification, S. aureus strains were assessed for their susceptibility to various antibiotics, using the agar disc diffusion method. S1 was found Methicillin resistant (MRSA) and is also resistant to Amoxicillin, Oxacillin, Amikacin, Tobramycin, Fluoroquinolones, Erythromycin and Clindamycin. However, it was susceptible to Gentamicin, Synercid, Co-trimoxazole, Rifampicin, Fusidic acid, Vancomycin, Teicoplanin and Linezolid.
A general note: Agar diffusion results depend on both activity and mobility in agar.

In another series the test system is S. aureus S2. Description: Antibiotic susceptibility, agar disc diffusion. The format is cell-based, Staphylococcus aureus. The settings on record: agar disc diffusion method. Here is the method: as §1
The next series has as its system S. aureus. Description: Antibacterial activity against S. aureus, (strains together or not specified). It is filed as cell-based, Staphylococcus aureus. On the procedure:
(§2) Different S. aureus strains described above were first pre-cultured aerobically at 37°C for 20 h in a Mueller-Hinton-Broth (MHB) medium, pH 7.3 (Difco Laboratories, Detroit, MI). Bacteria were suspended at absorbance of 0.001 at 620 nm in the MHB medium. […] Ten µl final volumes (10–200 µg/mL) of synthetic peptides (LL-37, bCAT, hCAT and bCTL) were incubated in microtitration plates with 90 µl of a mid-logarithmic phase culture of bacteria, with a starting absorbance of 0.001 at 620 nm. In the initial inoculi, bacteria were quantified by the agar plate spreading method which was 5×10^5 colony forming units (CFU)/mL. Tetracycline (10 mg/L) and Cefotaxime (0.1 mg/L) were used as positive controls. Microbial growth was assessed by the increase of absorbance after 24 h incubation at 37°C., [29] The A620 nm value of control cultures growing in the absence of peptide and antibiotics was defined as 100% growth. A620 nm zero with the antibiotics (Tetracycline and Cefotaxime) was taken as 100% inhibition. Absence of bacterial growth was verified by agar plate spreading. Each assay was performed in triplicates.

Series [1] is described as follows: S. aureus S1 (MRSA) culture supernatant, MHB medium, filtered. The conditions noted are these: 37°C, up to 24 h.
Series [2] in a line: S. aureus S2 (MSSA) culture supernatant, MHB medium, filtered. The conditions noted are these: 37°C, up to 24 h.
Series [3] in a line: S. aureus ATCC49775 culture supernatant with protease inhibitors (Pi+S49775). The settings on record: S. aureus ATCC49775, 37°C, up to 24 h.
Series [4] in a line: S. aureus S1 culture supernatant with protease inhibitors (Pi+S1). The conditions noted are these: S. aureus S1 (MRSA), 37°C, up to 24 h.
The nature of series [5]: S. aureus ATCC49775 culture supernatant (S49775), MHB medium, filtered. The settings on record: S. aureus ATCC49775, 37°C, up to 24 h.
The nature of series [6]: S. aureus ATCC25923 culture supernatant (S25923), MHB medium, filtered. The settings on record: S. aureus ATCC25923, 37°C, up to 24 h.
Series [7] is described as follows: S. aureus ATCC25923 culture supernatant with protease inhibitors (Pi+S25923). The conditions noted are these: S. aureus ATCC25923, 37°C, up to 24 h.
Series [8] is described as follows: S. aureus S2 culture supernatant with protease inhibitors (Pi+S2). The conditions noted are these: S. aureus S2 (MSSA), 37°C, up to 24 h.
The next series is described as follows: MHB medium. The settings on record: 37°C, up to 24 h.
A further series deals with S. aureus ATCC49775. It is filed as cell-based, Staphylococcus aureus. The conditions noted are these: ATCC49775, 24 h, pH 7.3. On the procedure:
as §2
(§3) The MIC values (µg/mL) are reported as means of three independent experiments. To determine significance, between different peptides (rows) and bacterial strains (columns), one way ANOVA was used. Overall significance and correlation was evaluated by 4×4 factorial ANOVA for independent samples. Significance was accepted at p≤0.05.

Another series deals with S. aureus ATCC25923. The format is cell-based, Staphylococcus aureus. The settings on record: ATCC25923, 24 h, pH 7.3. On the procedure: as §2, §3
The conditions of series [9]: MHB medium without supernatant, 37°C, 24 h; RP-HPLC.
Procedure: (§4) Triplicate wells were treated for each concentration of peptide. In parallel, several controls were performed: with and without peptides in MHB medium.
(§5) The synthetic peptides treated with bacterial supernatants and different controls including culture medium, bacterial supernatants, and synthetic peptides were separated using a Dionex HPLC system (Ultimate 3000; Sunnyvale, CA USA) on a Nucleosil reverse-phase 300–5C18-column (4×250 mm; particle size, 5 µm; porosity, 300 Å) (Macherey Nagel Hoerdt, France). Absorbance was monitored at 214 nm, and the solvent system consisted of 0.1% (v/v) TFA in water (solvent A) and 0.09% (v/v) TFA in 70% (v/v) acetonitrile-water (solvent B). Elution was performed at a flow rate of 700 µL/min, with the gradient as indicated on chromatograms. Fractions were collected with one min time interval. They were subsequently concentrated by evaporation by using a speed-vac, however not allowing them to dry completely.
The subject of series [10] is staphylococcal proteases released into bacterial supernatants. The conditions noted are these: 37°C, 24 h; for degradation by culture supernatant of S2 / degradation by culture supernatants S49775, S25923 and S1: peptide at MIC concentration, no protease inhibitors, RP-HPLC 214 nm, sequencing, MALDI-TOF, triplicate wells.
Procedure: S. aureus strains were precultured and plated on the agar plates and cultivated for 24 h at 37°C. After incubation, one colony per isolate was transferred to 10 mL of the MHB medium and incubated at 37°C for about 30 h to late stationary growth phase. After incubation, cultures were centrifuged at 10,000×g for 15 min and supernatants were filtered using a 0.22 µM Millex®-GV (Millipore, Carrigtwohill, Ireland) to eliminate bacteria. The supernatants were stored at −20°C until further use. In order to check sterility, 1 mL of each supernatant was incubated at 37°C for 48 h. Absence of a colony was interpreted as lack of viable bacteria.
as §4
For which, protease inhibitor cocktail (complete protease inhibitors except metalloproteases) (Roche Diagnostic GmbH, Mannheim, Germany) supplemented with 100 µM of 1–10 phenanthroline (metalloprotease inhibitor) (Sigma Aldrich GmbH, Steinheim, Germany) was added to bacterial supernatants before the addition of synthetic peptides. The whole suspension was incubated at 37°C for 24 h prior to being analyzed by RP-HPLC.
as §5
The N-terminal sequence of purified peptides was determined by automatic Edman degradation analysis on a Procise microsequencer (Applied Biosystems, Courtaboeuf, France). Samples purified by HPLC were loaded on polybrene-treated glass-fiber filters. Phenylthiohydantoin-amino acids (Pth-Xaa) were identified by chromatography on a C18 column (PTH C-18, 2.1 mm×200 mm).
Mass determination was carried out on a Brucker BIFLEX™ Matrix-Assisted Laser Desorption Ionization – Time-Of-Flight mass spectrometer (MALDI-TOF) (equipped with the high resolution optics (SCOUT™) with X–Y multi-sample probe, a gridless reflector and with the HIMAS™ linear detector). With a maximum accelerating potential of 30 kV, the system can be operated either in linear or the reflective mode. Ionization was carried out with a 337-nm beam from a nitrogen laser with a repetition rate of 3 Hz. The output signal from the detector was digitized at a sampling rate of 250 MHz in linear mode and 500 MHz in reflector mode using a 1 GHz digital oscilloscope (Lecroy model). Brucker supplied software hosted in Sun sparcworkstation was used for data processing and the instrumental control. […] These studies were realized using the matrix α-cyano-4-hydroxycinnamic acid, obtained from Sigma, and prepared as a saturated solution in acetone. A total of 1–2 µl of the sample matrix aliquot solution was deposited on the probe and dried by ambient air. A thin layer matrix crystal was obtained after rapid spreading and evaporation. […] A micromolar analyte solution was applied to the matrix and allowed to dry under moderate vacuum. The whole preparation was washed by 1 μl of trifluoroacetic acid (0.5%) aqueous solution. This cleaning procedure helps remove remaining alkaline cations and often leads to an increase in sensitivity.
For another series, the system named is S. aureus S2 (MSSA). The format is cell-based, Staphylococcus aureus. The settings on record: S2, 24 h, pH 7.3. Here is the method: as §1, §2, §3
The next series concerns S. aureus S1 (MRSA). It is filed as cell-based, Staphylococcus aureus. The conditions noted are these: S1, 24 h, pH 7.3. Here is the method: as §1, §2, §3

Entries after “also recorded” stand apart in the source; their conditions may differ. Where no end group is shown, it is not given here.

With `NCC[C@H](O)C(=O)N[C@@H]1C[C@H](N)[C@@H](O[C@H]2O[C@H](CN)[C@@H](O)[C@H](O)[C@H]2O)[C@H](O)[C@H]1O[C@H]1O[C@H](CO)[C@@H](O)[C@H](N)[C@H]1O` [Amikacin], the “susceptibility of strain S1” value with S. aureus S1 is recorded as “resistant”.

With `CC1(C)S[C@@H]2[C@H](NC(=O)[C@H](N)c3ccc(O)cc3)C(=O)N2[C@H]1C(=O)O` [Amoxicillin], the “susceptibility of strain S1” value in the series with S. aureus S1 is reported as “resistant”.

For `CCC[C@@H]1C[C@@H](C(=O)N[C@@H]([C@H]2O[C@H](SC)[C@H](O)[C@@H](O)[C@H]2O)[C@H](C)Cl)N(C)C1` [Clindamycin], the “susceptibility of strain S1” value in the series with S. aureus S1 is given as “resistant”.

As for `CC[C@H]1OC(=O)[C@H](C)[C@@H](O[C@H]2C[C@@](C)(OC)[C@@H](O)[C@H](C)O2)[C@H](C)[C@@H](O[C@@H]2O[C@H](C)C[C@H](N(C)C)[C@H]2O)[C@](C)(O)C[C@@H](C)C(=O)[C@H](C)[C@@H](O)[C@]1(C)O` [Erythromycin], the “susceptibility of strain S1” value with S. aureus S1 is recorded as “resistant”.

In the case of `CC(=O)O[C@H]1C[C@@]2(C)[C@@H](C[C@@H](O)[C@H]3[C@@]4(C)CC[C@@H](O)[C@@H](C)[C@@H]4CC[C@@]32C)/C1=C(\CCC=C(C)C)C(=O)O` [Fusidic acid], the “susceptibility of strain S1” value in the series with S. aureus S1 is on record as “susceptible”.

In the case of `CNC(C)C1CCC(N)C(OC2C(N)CC(N)C(OC3OCC(C)(O)C(NC)C3O)C2O)O1` (stereo not drawn) [Gentamicin], in the series on S. aureus S1, the “susceptibility of strain S1” value was “susceptible”.

Turning to `CC(=O)NC[C@H]1CN(c2ccc(N3CCOCC3)c(F)c2)C(=O)O1` [Linezolid], the “susceptibility of strain S1” value in the series on S. aureus S1 is listed as “susceptible”.

`COc1cccc(OC)c1C(=O)N[C@@H]1C(=O)N2[C@@H]1SC(C)(C)[C@@H]2C(=O)O` [Methicillin]: the “susceptibility of strain S2” value with S. aureus S2 was “susceptible”. The “susceptibility of strain S1” value with S. aureus S1 is “resistant”.

`Cc1onc(-c2ccccc2)c1C(=O)N[C@@H]1C(=O)N2[C@@H]1SC(C)(C)[C@@H]2C(=O)O` [Oxacillin]: the “susceptibility of strain S1” value with S. aureus S1 is reported as “resistant”.

Take `CO[C@H]1/C=C/O[C@@]2(C)Oc3c(C)c(O)c4c(O)c(c(/C=N/N5CCN(C)CC5)c(O)c4c3C2=O)NC(=O)/C(C)=C\C=C\[C@H](C)[C@H](O)[C@@H](C)[C@@H](O)[C@@H](C)[C@H](OC(C)=O)[C@@H]1C` [Rifampicin]: in the series on S. aureus S1, the “susceptibility of strain S1” value is recorded as “susceptible”.

For `NC[C@H]1O[C@H](O[C@H]2[C@H](O)[C@@H](O[C@H]3O[C@H](CO)[C@@H](O)[C@H](N)[C@H]3O)[C@H](N)C[C@@H]2N)[C@H](N)C[C@@H]1O` [Tobramycin], in the series with S. aureus S1, the “susceptibility of strain S1” value was “resistant”.

As to `CN[C@H](CC(C)C)C(=O)N[C@H]1C(=O)N[C@@H](CC(N)=O)C(=O)N[C@H]2C(=O)N[C@H]3C(=O)N[C@H](C(=O)N[C@H](C(=O)O)c4cc(O)cc(O)c4-c4cc3ccc4O)[C@H](O)c3ccc(c(Cl)c3)Oc3cc2cc(c3O[C@@H]2O[C@H](CO)[C@@H](O)[C@H](O)[C@H]2O[C@H]2C[C@](C)(N)[C@H](O)[C@H](C)O2)Oc2ccc(cc2Cl)[C@H]1O` [Vancomycin], in the series with S. aureus S1, the “susceptibility of strain S1” value was “susceptible”.

For Co-trimoxazole, the “susceptibility of strain S1” value with S. aureus S1 is on record as “susceptible”.

Take “FLE-RSMRLSFRARG [shorter peptide lacking the C-terminal end (YGFR) of CTL]”: the “concentration at which antibacterial activities are displayed” value in the series with S. aureus (data not shown) amounted to 200 µg/mL.

For “FLE-RSMRLSFRARGYGFR [FLE-CTL, CTL derived peptide with a hydrophobic N-terminal end]”, the “antibacterial activity against S. aureus” value in the series with S. aureus (at 400 µg/mL, recent experiments) is “inactive”.

Regarding RSMRLSFRARGYGFR, the not cleaved entry is reported as “not degraded by any of the staphylococcal strains tested” in series [1]; “not degraded by any of the staphylococcal strains tested” in [2]; “remains unaffected by S. aureus supernatants with or without protease inhibitors” in series [3]; “remains unaffected by S. aureus supernatants with or without protease inhibitors” in [4]; “not degraded by any of the staphylococcal strains tested” in series [5]; “not degraded by any of the staphylococcal strains tested” in series [6]. In addition, the not cleaved entry in [7] and in series [8] was “remains unaffected by S. aureus supernatants with or without protease inhibitors” throughout.

For RSMRLSFRARGYGFRGPGLQL, the cleaved bond entry in series [1] is reported as “L348-S349”; in [2] it was “S349-F350; also recorded: G356-F357”; in series [5] it was “L348-S349”; in [6], “L348-S349”. Further, the not cleaved entry in the series “MHB medium” is given as “In MHB medium, bCAT was not processed”; in [3] it was “not cleaved by any of the four strain supernatants tested in presence of protease inhibitors”; in [4], “not cleaved by any of the four strain supernatants tested in presence of protease inhibitors”; in series [7], “not cleaved by any of the four strain supernatants tested in presence of protease inhibitors”; in [8] it was “not cleaved by any of the four strain supernatants tested in presence of protease inhibitors”.

For “RSMRLSFRARGYGFRGPGLQL [bCAT, catestatin]”, the minimum inhibitory concentration (MIC) against S. aureus ATCC49775 stood at 100 mg/L; against S. aureus ATCC25923, 100 mg/L; against S. aureus S2 (MSSA), 115 mg/L; in the series on S. aureus S1 (MRSA), 100 mg/L. Further, the “processing in MHB medium” value in [9] is “not processed”. The “degradation by culture supernatant of S2” value in series [10] is recorded as “largely cleaved”. Besides, in series [10], the “degradation by culture supernatants S49775, S25923 and S1” value is recorded as “processed”. Besides, the “degradation by four strain supernatants in presence of protease inhibitors” value in series [10] (protease inhibitor cocktail + 100 µM 1–10 phenanthroline, RP-HPLC) is “not cleaved”.

Regarding “SSMKLSFRARAYGFRGPGPQL [hCAT, catestatin]”, the minimum inhibitory concentration (MIC) in the series with S. aureus ATCC49775 was found to be 125 mg/L; in the series on S. aureus ATCC25923 it was 135 mg/L; in the series on S. aureus S2 (MSSA), 150 mg/L; with S. aureus S1 (MRSA) it was 130 mg/L. Further, the “processing in MHB medium” value in series [9] is on record as “not cleaved”. In series [10], the “degradation by culture supernatant of S2” value is reported as “completely cleaved”. In addition, the “degradation by culture supernatants S49775, S25923 and S1” value in [10] was “partially processed”.

Take SSMKLSFRARGYGFRGPGPQL: the cleaved bond entry in [1] is “L356-S357”; in series [2] it was “G364-F365; also recorded: S357-F358”; in [5] it was “L356-S357”; in series [6] it was “L356-S357”. For the same molecule, the not cleaved result in the series “MHB medium” is recorded as “In presence of MHB medium, hCAT was not cleaved”.

As for Teicoplanin, the “susceptibility of strain S1” value with S. aureus S1 is given as “susceptible”.

The MIC is the lowest concentration that inhibits growth of the organism. Low values mean inhibition by little substance, high ones a need for much substance.
